Tests used:
CFTR = target: T1, CFTR (Homo sapiens, UniProt P13569, DEL508-508); test: TECC24 AUC fold over DMSO @10 μM, CFTR-mediated transepithelial chloride transport in CF-HBE cells; assay type: cell-based; settings: test agent AUC divided by DMSO vehicle AUC, primary CF-HBE cells, ΔF508 homozygous donor, 48 hours incubation
T1 construct: Primary human bronchial epithelial cells from a ΔF508 homozygous CF donor; host or cells: primary human bronchial epithelial cells (CF-HBE), ΔF508 homozygous donor
T1 sequence (P13569 with tags, fused parts or gaps DEL508-508): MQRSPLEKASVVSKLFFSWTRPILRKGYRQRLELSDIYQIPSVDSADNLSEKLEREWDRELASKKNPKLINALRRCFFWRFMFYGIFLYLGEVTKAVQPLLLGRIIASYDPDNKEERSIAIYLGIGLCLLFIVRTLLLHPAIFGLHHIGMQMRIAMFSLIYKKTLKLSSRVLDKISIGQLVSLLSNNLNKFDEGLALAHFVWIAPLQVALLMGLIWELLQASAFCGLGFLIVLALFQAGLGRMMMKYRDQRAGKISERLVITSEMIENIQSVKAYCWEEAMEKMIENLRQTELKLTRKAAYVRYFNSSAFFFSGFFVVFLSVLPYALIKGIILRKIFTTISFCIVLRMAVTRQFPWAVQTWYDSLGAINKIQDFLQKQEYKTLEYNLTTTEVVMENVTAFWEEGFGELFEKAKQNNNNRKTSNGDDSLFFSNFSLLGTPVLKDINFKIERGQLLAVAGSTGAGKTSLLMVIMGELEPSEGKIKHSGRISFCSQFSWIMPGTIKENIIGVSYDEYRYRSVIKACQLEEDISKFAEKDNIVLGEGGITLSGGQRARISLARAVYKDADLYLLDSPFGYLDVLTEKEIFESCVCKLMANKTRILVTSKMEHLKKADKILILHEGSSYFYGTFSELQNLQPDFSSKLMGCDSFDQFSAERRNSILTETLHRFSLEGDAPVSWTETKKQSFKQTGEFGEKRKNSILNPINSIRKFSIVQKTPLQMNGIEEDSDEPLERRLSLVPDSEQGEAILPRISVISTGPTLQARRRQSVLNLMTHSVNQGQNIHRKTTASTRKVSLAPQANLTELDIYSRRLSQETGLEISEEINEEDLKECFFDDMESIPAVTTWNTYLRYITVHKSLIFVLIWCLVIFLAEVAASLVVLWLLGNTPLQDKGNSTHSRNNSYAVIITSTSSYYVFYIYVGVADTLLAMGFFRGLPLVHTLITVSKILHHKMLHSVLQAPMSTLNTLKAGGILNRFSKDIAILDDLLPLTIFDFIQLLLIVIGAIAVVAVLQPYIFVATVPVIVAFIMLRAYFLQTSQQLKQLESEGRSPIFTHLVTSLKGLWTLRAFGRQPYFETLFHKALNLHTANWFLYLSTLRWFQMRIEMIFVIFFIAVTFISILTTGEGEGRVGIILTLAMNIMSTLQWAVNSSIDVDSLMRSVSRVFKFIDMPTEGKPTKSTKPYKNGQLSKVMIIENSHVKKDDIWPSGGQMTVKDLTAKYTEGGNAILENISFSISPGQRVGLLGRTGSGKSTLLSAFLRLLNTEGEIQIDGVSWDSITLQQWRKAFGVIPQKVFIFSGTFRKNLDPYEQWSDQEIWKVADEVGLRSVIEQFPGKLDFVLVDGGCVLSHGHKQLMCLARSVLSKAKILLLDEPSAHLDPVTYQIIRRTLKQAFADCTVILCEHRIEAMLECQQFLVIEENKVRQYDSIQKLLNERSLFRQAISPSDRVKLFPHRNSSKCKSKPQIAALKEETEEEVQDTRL
Procedure: Example 387. TECC24 AUC Fold Over DMSO @10 μM
The effects of a test agent on CFTR-mediated transepithelial chloride transport is measured using TECC24 recording analysis. Test agents are solubilized in DMSO. Solubilized test agents are mixed with incubation medium containing DMEM/F12, Ultroser G (2%; Crescent Chemical, catalog #67042), Hyclone Fetal Clone II (2%; GE Healthcare, catalog #SH30066.02), bovine brain extract (0.25%; Lonza, catalog #CC-4098), insulin (2.5 μg/mL), IL-13 (10 ng/mL), hydrocortisone (20 nM), transferrin (2.5 μg/mL), triiodothyronine (500 nM), ethanolamine (250 nM), epinephrine (1.5 μM), phosphoethanolamine (250 nM), and retinoic acid (10 nM). Primary human bronchial epithelial cells from a ΔF508 homozygous CF donor (CF-HBE cells; from University of North Carolina Cystic Fibrosis Tissue Procurement Center), grown on Transwell HTS 24-well cell culture inserts (Costar, catalog #3378), are exposed to test agents or controls dissolved in incubation medium. The CF-HBE cells are cultured at 36.5° C. for 48 hours before TECC24 recordings are performed in the presence or absence of test agent, a positive control or vehicle (DMSO).
Following incubation, the transwell cell culture inserts containing the test agent or control-treated CF-HBE cells are loaded onto a TECC24 apparatus (TECC v7 or MTECC v2; EP Design) to record the transepithelial voltage (VT) and resistance (TEER) using 4 AgCl electrodes per well configured in current-clamp mode. The apical and basolateral bath solutions both contain (in mM) 140 NaCl, 5 KCl, 2 CaCl2, 1 MgCl2, 10 Hepes, and 10 glucose (adjusted to pH 7.4 with NaOH). To inhibit basal Na+ absorption, the ENaC inhibitor benzamil (10 μM) is added to the bath. Then, the adenylate cyclase activator, forskolin (10 μM), is added to the bath to activate CFTR. The forskolin-stimulated Cl— transport is halted by addition of CFTR inhibitor-172 (20 μM) to the bath at the end of the experiment to confirm specificity. VT and TEER recordings are digitally acquired at routine intervals using TECC or MTECC software (EP Design). VT and TEER are transformed into equivalent transepithelial Cl— current (IEQ), and the Area Under the Curve (AUC) of the IEQ time course between forskolin and CFTR inhibitor-172 addition is generated using Excel (Microsoft). Efficacy is expressed as the ratio of the test agent AUC divided by vehicle AUC. EC50s based on AUC are generated using the non-linear regression log(agonist) vs. response function in Prism software (Graphpad) with HillSlope fixed=1.
If a test agent increases the AUC of the forskolin-stimulated IEQ relative to vehicle in CF-HBE cells, and this increase is inhibited by CFTR inhibitor-172, then the test agent is considered a CFTR corrector. TECC assay efficacy is expressed as the ratio of the test agent AUC divided by DMSO vehicle AUC. As set forth in Table 2 below, a TECC value less than 12 is marked “A”; a value between 12-20 is marked “B”; a value between 20 and 80 is marked “C”. […]

NBD1 = target: T2, NBD1 (Homo sapiens, UniProt P13569); test: Aggregation analysis using differential static light scattering (DSLS), thermal stability of NBD1 (ΔTagg); assay type: binding; settings: ΔTagg versus DMSO control, NBD1 0.2 mg/ml
T2 construct: Purified recombinant NBD1 was produced using previously described methods; made in house
T2 sequence (P13569 423-646 limits assumed): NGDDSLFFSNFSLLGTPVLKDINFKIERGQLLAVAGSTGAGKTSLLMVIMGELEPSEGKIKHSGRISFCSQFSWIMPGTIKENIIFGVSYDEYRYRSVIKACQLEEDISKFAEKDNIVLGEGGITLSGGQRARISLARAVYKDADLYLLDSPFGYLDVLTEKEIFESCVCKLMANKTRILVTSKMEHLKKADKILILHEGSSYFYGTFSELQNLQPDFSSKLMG
Method in brief: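 Stabilisation is measured as the shift in aggregation onset of recombinant NBD1 (0.2 mg/ml, 2 mM ATP, 5 mM MgCl2, pH7.6) exposed to compound. Images are taken every 0.5° C. while heating at 1° C. per minute, and the inflection-point Tagg is corrected by the DMSO mean.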

Structure (SMILES)	TECC (AUC, 10 μM) (CFTR)	DSLS 3D (100 μM ΔT) (NBD1)
C[C@@H](Cc1cccc([C@@]2(C)CCCC(C)(C)CS(=O)(=O)CCc3c(c(F)c(F)c4[nH]ccc34)Sc3ccc(F)c(c3)-c3nc2nn3C)c1)C(=O)O (racemic) [Compound 259, (2S)-2-methyl-3-[3-[(6R)-21,22,28-trifluoro-3,6,10,10-tetramethyl-12,12-dioxo-12λ6,24-dithia-3,4,19,30-tetrazapentacyclo[23.3.1.12,5.015,23.016,20]triaconta-1(29),2(30),4,15,17,20,22,25,27-nonaen-6-yl]phenyl]propanoic Acid]	C (a value between 20 and 80 is marked “C”)	C (a value greater than 10 °C and less than or equal to 25 °C is marked “C”)
Cn1nc2nc1-c1cc(ccn1)Cc1c(F)cc3[nH]ccc3c1CCS(=O)(=O)CC(C)(C)CCC[C@]2(C)c1cccc(CC(C)(C)C(=O)O)c1 (racemic) [Compound 295, 2,2-dimethyl-3-[3-[rac-(6R)-22-fluoro-3,6,10,10-tetramethyl-12,12-dioxo-12λ6-thia-3,4,19,28,30-pentazapentacyclo[23.3.1.12,5.015,23.016,20]triaconta-1(29),2(30),4,15,17,20,22,25,27-nonaen-6-yl]phenyl]propanoic Acid]	B (a value between 12-20 is marked “B”)	B (a value above 5 °C and less than or equal to 10 °C is marked “B”)
[2H]C([2H])([2H])n1nc2nc1-c1cc(ccc1F)Oc1c(F)cc3[nH]ccc3c1CCS(=O)(=O)CC(C)(C)CCCC2(C)c1cccc(OCC(=O)O)c1 (single isomer, unassigned) [Compound 1A, 2-[3-[22,28-Difluoro-6,10,10-trimethyl-12,12-dioxo-3-(trideuteriomethyl)-24-oxa-12λ^6-thia-3,4,19,30-tetrazapentacyclo[23.3.1.1^2,5.0^15,23.0^16,20]triaconta-1(29),2(30),4,15,17,20,22,25,27-nonaen-6-yl]phenoxy]acetic Acid]	C (a value between 20 and 80 is marked “C”)	C (a value greater than 10 °C and less than or equal to 25 °C is marked “C”)
[2H]C([2H])([2H])n1nc2nc1-c1cc(ccc1F)Oc1c(F)cc3[nH]ccc3c1CCS(=O)(=O)CC(C)(C)CCCC2(C)c1cccc(OCC(=O)O)c1 (single isomer, unassigned) [Compound 1B, 2-[3-[22,28-Difluoro-6,10,10-trimethyl-12,12-dioxo-3-(trideuteriomethyl)-24-oxa-12λ^6-thia-3,4,19,30-tetrazapentacyclo[23.3.1.1^2,5.0^15,23.0^16,20]triaconta-1(29),2(30),4,15,17,20,22,25,27-nonaen-6-yl]phenoxy]acetic Acid]	A (a TECC value less than 12 is marked “A”)	A (an ΔTagg value less than or equal to 5 °C is marked “A”)
Cn1nc2nc1-c1cc(ccc1F)Oc1c(F)cc3[nH]ccc3c1CCS(=O)(=O)CCC(F)(F)CCC2(C)c1cccc(CCC(=O)O)c1 (single isomer, unassigned) [Compound 2A, 3-[3-(9,9,22,28-Tetrafluoro-3,6-dimethyl-12,12-dioxo-24-oxa-12λ^6-thia-3,4,19,30-tetrazapentacyclo[23.3.1.1^2,5.0^15,23.0^16,20]triaconta-1(29),2(30),4,15,17,20,22,25,27-nonaen-6-yl)phenyl]propanoic Acid]	B (a value between 12-20 is marked “B”)	B (a value above 5 °C and less than or equal to 10 °C is marked “B”)
Cn1nc2nc1-c1cc(ccc1F)Oc1c(F)cc3[nH]ccc3c1CCS(=O)(=O)CCC(F)(F)CCC2(C)c1cccc(CCC(=O)O)c1 (single isomer, unassigned) [Compound 2B, 3-[3-(9,9,22,28-Tetrafluoro-3,6-dimethyl-12,12-dioxo-24-oxa-12λ^6-thia-3,4,19,30-tetrazapentacyclo[23.3.1.1^2,5.0^15,23.0^16,20]triaconta-1(29),2(30),4,15,17,20,22,25,27-nonaen-6-yl)phenyl]propanoic Acid]	A (a TECC value less than 12 is marked “A”)	A (an ΔTagg value less than or equal to 5 °C is marked “A”)
Cn1nc2nc1-c1cc(ccc1F)Oc1c(F)cc3[nH]ccc3c1CCS(=O)(=O)CC(C)(C)CCCC2(C)c1cccc(CCO)c1 (single isomer, unassigned) [Compound 4A, 2-[3-(22,28-Difluoro-3,6,10,10-tetramethyl-12,12-dioxo-24-oxa-12λ^6-thia-3,4,19,30-tetrazapentacyclo[23.3.1.1^2,5.0^15,23.0^16,20]triaconta-1(29),2(30),4,15,17,20,22,25,27-nonaen-6-yl)phenyl]ethanol]	C (a value between 20 and 80 is marked “C”)	C (a value greater than 10 °C and less than or equal to 25 °C is marked “C”)
Cn1nc2nc1-c1cc(ccc1F)Oc1c(F)cc3[nH]ccc3c1CCS(=O)(=O)CC(C)(C)CCCC2(C)c1cccc(CCO)c1 (single isomer, unassigned) [Compound 4B, 2-[3-(22,28-Difluoro-3,6,10,10-tetramethyl-12,12-dioxo-24-oxa-12λ^6-thia-3,4,19,30-tetrazapentacyclo[23.3.1.1^2,5.0^15,23.0^16,20]triaconta-1(29),2(30),4,15,17,20,22,25,27-nonaen-6-yl)phenyl]ethanol]	A (a TECC value less than 12 is marked “A”)	A (an ΔTagg value less than or equal to 5 °C is marked “A”)
Cn1nc2nc1-c1cc(ccc1F)Oc1c(F)cc3[nH]ccc3c1CCS(=O)(=O)CC(C)(C)OCCC2(C)c1cccc(CC(=O)O)c1 (single isomer, unassigned) [Compound 5A, 2-[3-(22,28-Difluoro-3,6,10,10-tetramethyl-12,12-dioxo-9,24-dioxa-12λ^6-thia-3,4,19,30-tetrazapentacyclo[23.3.1.12,5.015,23.016,20]triaconta-1(29),2(30),4,15,17,20,22,25,27-nonaen-6-yl)phenyl]acetic Acid]	B (a value between 12-20 is marked “B”)	C (a value greater than 10 °C and less than or equal to 25 °C is marked “C”)
Cn1nc2nc1-c1cc(ccc1F)Oc1c(F)cc3[nH]ccc3c1CCS(=O)(=O)CC(C)(C)OCCC2(C)c1cccc(CC(=O)O)c1 (single isomer, unassigned) [Compound 5B, 2-[3-(22,28-Difluoro-3,6,10,10-tetramethyl-12,12-dioxo-9,24-dioxa-12λ^6-thia-3,4,19,30-tetrazapentacyclo[23.3.1.12,5.015,23.016,20]triaconta-1(29),2(30),4,15,17,20,22,25,27-nonaen-6-yl)phenyl]acetic Acid]	B (a value between 12-20 is marked “B”)	B (a value above 5 °C and less than or equal to 10 °C is marked “B”)
C[C@H](Cc1cccc(C2(C)CCCC(C)(C)CS(=O)(=O)CCc3c(c(F)cc4[nH]ccc34)Oc3ccc(F)c(c3)-c3nc2nn3C)c1)C(=O)O (single isomer, unassigned) [Compound 6A]	B (a value between 12-20 is marked “B”)	C (a value greater than 10 °C and less than or equal to 25 °C is marked “C”)
C[C@H](Cc1cccc(C2(C)CCCC(C)(C)CS(=O)(=O)CCc3c(c(F)cc4[nH]ccc34)Oc3ccc(F)c(c3)-c3nc2nn3C)c1)C(=O)O (single isomer, unassigned) [Compound 6B]	C (a value between 20 and 80 is marked “C”)	A (an ΔTagg value less than or equal to 5 °C is marked “A”)

Source: patent US12649750B2, “Macrocyclic compounds, compositions, and methods of using thereof” (Sionna Therapeutics Inc., priority 2022, dated 2026)
